{"source": "ChEMBL document CHEMBL3217466", "about": "“Synthesis and biological activity of hydroxybenzylidenyl pyrrolidine-2,5-dione derivatives as new potent inhibitors of tyrosinase” (Medchemcomm, 2011)", "key": {"[1]": {"test_system": "B16-F10", "test": "Inhibition of melanogenesis in mouse B16F10 cells assessed as melanin content at 1 uM after 24 hrs in presence of alpha-MSH (reference value: 241.87%)", "format": "functional", "parameters": "scale not given: the % may be the effect or the level left"}, "[2]": {"molecular_target": "T1, Tyrosinase (Agaricus bisporus, UniProt O42713)", "T1 sequence (O42713 whole entry)": "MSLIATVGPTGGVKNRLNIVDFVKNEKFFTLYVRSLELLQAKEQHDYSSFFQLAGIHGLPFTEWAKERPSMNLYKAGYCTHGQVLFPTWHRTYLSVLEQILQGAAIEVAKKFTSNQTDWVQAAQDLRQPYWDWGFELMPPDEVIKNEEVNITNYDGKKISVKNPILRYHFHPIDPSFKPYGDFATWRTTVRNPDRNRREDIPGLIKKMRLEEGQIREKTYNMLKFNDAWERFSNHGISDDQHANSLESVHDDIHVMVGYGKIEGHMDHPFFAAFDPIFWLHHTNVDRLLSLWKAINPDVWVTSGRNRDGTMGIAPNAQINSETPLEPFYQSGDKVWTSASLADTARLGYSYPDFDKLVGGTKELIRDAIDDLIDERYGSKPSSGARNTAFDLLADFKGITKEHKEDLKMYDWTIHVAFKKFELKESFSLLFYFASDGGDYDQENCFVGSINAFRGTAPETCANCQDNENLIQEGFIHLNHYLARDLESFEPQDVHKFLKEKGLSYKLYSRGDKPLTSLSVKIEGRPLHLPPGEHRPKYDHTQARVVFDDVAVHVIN", "test": "Inhibition of mushroom tyrosinase assessed as decrease in dopachrome production using L-tyrosine as substrate by spectrophotometric analysis"}, "[3]": {"test": "Cytotoxicity against mouse B16F10 cells assessed as cell viability at 0.2 uM after 48 hrs by MTT assay", "format": "cell-based, B16-F10", "conditions": "read-out: Activity"}, "[4]": {"test_system": "B16-F10", "test": "Inhibition of melanogenesis in mouse B16F10 cells assessed as decrease in melanin content after 24 hrs in presence of alpha-MSH", "format": "functional, cell-based"}, "[5]": {"molecular_target": "T2, Tyrosinase (Mus musculus) (UniProt P11344)", "T2 sequence (whole entry)": "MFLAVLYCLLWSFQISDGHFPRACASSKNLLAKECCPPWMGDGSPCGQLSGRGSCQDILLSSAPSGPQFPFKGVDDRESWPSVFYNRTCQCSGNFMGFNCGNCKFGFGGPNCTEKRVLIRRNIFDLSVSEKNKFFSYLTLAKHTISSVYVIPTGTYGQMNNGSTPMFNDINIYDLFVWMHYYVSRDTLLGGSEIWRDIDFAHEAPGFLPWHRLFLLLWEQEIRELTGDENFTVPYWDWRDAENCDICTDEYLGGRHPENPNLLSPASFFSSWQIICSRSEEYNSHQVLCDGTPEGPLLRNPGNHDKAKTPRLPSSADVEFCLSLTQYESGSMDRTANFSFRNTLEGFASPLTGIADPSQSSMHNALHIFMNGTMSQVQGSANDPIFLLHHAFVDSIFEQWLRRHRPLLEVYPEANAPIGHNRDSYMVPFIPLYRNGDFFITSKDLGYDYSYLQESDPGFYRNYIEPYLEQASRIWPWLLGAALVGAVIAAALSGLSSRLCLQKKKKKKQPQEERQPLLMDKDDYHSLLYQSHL", "test": "Inhibition of tyrosinase in mouse B16F10 cells assessed as rate of L-DOPA oxidation at 0.2 uM after 24 hrs by ELISA in presence of alpha-MSH (reference value: […]%)", "format": "cell-based", "parameters": "scale not given: the % may be the effect or the level left", "conditions": "B16-F10"}, "[6]": {"molecular_target": "T1, Tyrosinase", "test": "Competitive inhibition of mushroom tyrosinase assessed as decrease in rate of dopachrome formation using L-tyrosine as substrate at 20 uM by Lineweaver-Burk plot analysis"}, "[7]": {"molecular_target": "T2, Tyrosinase (Mus musculus)", "test": "Inhibition of tyrosinase in mouse B16F10 cells assessed as rate of L-DOPA oxidation at 10 uM after 24 hrs by ELISA in presence of alpha-MSH (reference value: […]%)", "format": "cell-based", "parameters": "scale not given: the % may be the effect or the level left", "conditions": "B16-F10"}, "[8]": {"test_system": "B16-F10", "test": "Inhibition of melanogenesis in mouse B16F10 cells assessed as melanin content at 2.5 uM after 24 hrs in presence of alpha-MSH (reference value: 241.87%)", "format": "functional", "parameters": "scale not given: the % may be the effect or the level left"}, "[9]": {"test_system": "B16-F10", "test": "Inhibition of melanogenesis in mouse B16F10 cells assessed as melanin content at 5 uM after 24 hrs in presence of alpha-MSH (reference value: 241.87%)", "format": "functional", "parameters": "scale not given: the % may be the effect or the level left"}, "[10]": {"molecular_target": "T1, Tyrosinase", "test": "Competitive inhibition of mushroom tyrosinase assessed as decrease in rate of dopachrome formation using L-tyrosine as substrate at 1.25 uM by Lineweaver-Burk plot analysis"}, "[11]": {"test_system": "B16-F10", "test": "Inhibition of melanogenesis in mouse B16F10 cells assessed as melanin content at 10 uM after 24 hrs in presence of alpha-MSH (reference value: 241.87%)", "format": "functional", "parameters": "scale not given: the % may be the effect or the level left"}, "[12]": {"test": "Cytotoxicity against mouse B16F10 cells assessed as cell viability at 5 uM after 48 hrs by MTT assay", "format": "cell-based, B16-F10", "conditions": "read-out: Activity"}, "[13]": {"test": "Cytotoxicity against mouse B16F10 cells assessed as cell viability at 1 uM after 48 hrs by MTT assay", "format": "cell-based, B16-F10", "conditions": "read-out: Activity"}, "[14]": {"molecular_target": "T2, Tyrosinase (Mus musculus)", "test": "Inhibition of tyrosinase in mouse B16F10 cells assessed as rate of L-DOPA oxidation at 2.5 uM after 24 hrs by ELISA in presence of alpha-MSH (reference value: […]%)", "format": "cell-based", "parameters": "scale not given: the % may be the effect or the level left", "conditions": "B16-F10"}, "[15]": {"test": "Cytotoxicity against mouse B16F10 cells assessed as cell viability at 10 uM after 48 hrs by MTT assay", "format": "cell-based, B16-F10", "conditions": "read-out: Activity"}, "[16]": {"test_system": "B16-F10", "test": "Inhibition of melanogenesis in mouse B16F10 cells assessed as melanin content at 0.2 uM after 24 hrs in presence of alpha-MSH (reference value: 241.87%)", "format": "functional", "parameters": "scale not given: the % may be the effect or the level left"}, "[17]": {"test": "Cytotoxicity against mouse B16F10 cells assessed as cell viability at 2.5 uM after 48 hrs by MTT assay", "format": "cell-based, B16-F10", "conditions": "read-out: Activity"}, "[18]": {"molecular_target": "T2, Tyrosinase (Mus musculus)", "test": "Inhibition of tyrosinase in mouse B16F10 cells assessed as rate of L-DOPA oxidation at 1 uM after 24 hrs by ELISA in presence of alpha-MSH (reference value: […]%)", "format": "cell-based", "parameters": "scale not given: the % may be the effect or the level left", "conditions": "B16-F10"}, "[19]": {"molecular_target": "T2, Tyrosinase (Mus musculus)", "test": "Inhibition of tyrosinase in mouse B16F10 cells assessed as rate of L-DOPA oxidation at 5 uM after 24 hrs by ELISA in presence of alpha-MSH (reference value: […]%)", "format": "cell-based", "parameters": "scale not given: the % may be the effect or the level left", "conditions": "B16-F10"}}}
{"smiles": "COc1ccc(/C=C2\\CC(=O)NC2=O)cc1O", "values": [{"measurement": "Activity", "setting": "[1]", "result": 231.69, "unit": "%"}, {"measurement": "IC50", "setting": "[2]", "result": 2.23, "unit": "µM"}, {"measurement": "viability at 48 h, 0.2 µM", "setting": "[3]", "result": 99.5, "unit": "%"}, {"measurement": "inhibition", "setting": "[4]", "result": "Dose-dependent effect"}, {"measurement": "Activity", "setting": "[5]", "result": 224, "unit": "%"}, {"measurement": "Ki", "setting": "[6]", "result": 1.82, "unit": "µM"}, {"measurement": "Activity", "setting": "[7]", "result": 97.1, "unit": "%"}, {"measurement": "Activity", "setting": "[8]", "result": 113.11, "unit": "%"}, {"measurement": "Activity", "setting": "[9]", "result": 103.74, "unit": "%"}, {"measurement": "Ki", "setting": "[10]", "result": 0.424, "unit": "µM"}, {"measurement": "Activity", "setting": "[11]", "result": 99.49, "unit": "%"}, {"measurement": "viability at 48 h, 5 µM", "setting": "[12]", "result": 98.1, "unit": "%"}, {"measurement": "viability at 48 h, 1 µM", "setting": "[13]", "result": 98.9, "unit": "%"}, {"measurement": "Activity", "setting": "[14]", "result": 103, "unit": "%"}, {"measurement": "viability at 48 h, 10 µM", "setting": "[15]", "result": 97.8, "unit": "%"}, {"measurement": "Activity", "setting": "[16]", "result": 236.67, "unit": "%"}, {"measurement": "viability at 48 h, 2.5 µM", "setting": "[17]", "result": 98.4, "unit": "%"}, {"measurement": "Activity", "setting": "[18]", "result": 177, "unit": "%"}, {"measurement": "Activity", "setting": "[19]", "result": 101, "unit": "%"}]}
